Target: T1, JAK3 (Homo sapiens, UniProt P52333)
T1 sequence (P52333 1-1124): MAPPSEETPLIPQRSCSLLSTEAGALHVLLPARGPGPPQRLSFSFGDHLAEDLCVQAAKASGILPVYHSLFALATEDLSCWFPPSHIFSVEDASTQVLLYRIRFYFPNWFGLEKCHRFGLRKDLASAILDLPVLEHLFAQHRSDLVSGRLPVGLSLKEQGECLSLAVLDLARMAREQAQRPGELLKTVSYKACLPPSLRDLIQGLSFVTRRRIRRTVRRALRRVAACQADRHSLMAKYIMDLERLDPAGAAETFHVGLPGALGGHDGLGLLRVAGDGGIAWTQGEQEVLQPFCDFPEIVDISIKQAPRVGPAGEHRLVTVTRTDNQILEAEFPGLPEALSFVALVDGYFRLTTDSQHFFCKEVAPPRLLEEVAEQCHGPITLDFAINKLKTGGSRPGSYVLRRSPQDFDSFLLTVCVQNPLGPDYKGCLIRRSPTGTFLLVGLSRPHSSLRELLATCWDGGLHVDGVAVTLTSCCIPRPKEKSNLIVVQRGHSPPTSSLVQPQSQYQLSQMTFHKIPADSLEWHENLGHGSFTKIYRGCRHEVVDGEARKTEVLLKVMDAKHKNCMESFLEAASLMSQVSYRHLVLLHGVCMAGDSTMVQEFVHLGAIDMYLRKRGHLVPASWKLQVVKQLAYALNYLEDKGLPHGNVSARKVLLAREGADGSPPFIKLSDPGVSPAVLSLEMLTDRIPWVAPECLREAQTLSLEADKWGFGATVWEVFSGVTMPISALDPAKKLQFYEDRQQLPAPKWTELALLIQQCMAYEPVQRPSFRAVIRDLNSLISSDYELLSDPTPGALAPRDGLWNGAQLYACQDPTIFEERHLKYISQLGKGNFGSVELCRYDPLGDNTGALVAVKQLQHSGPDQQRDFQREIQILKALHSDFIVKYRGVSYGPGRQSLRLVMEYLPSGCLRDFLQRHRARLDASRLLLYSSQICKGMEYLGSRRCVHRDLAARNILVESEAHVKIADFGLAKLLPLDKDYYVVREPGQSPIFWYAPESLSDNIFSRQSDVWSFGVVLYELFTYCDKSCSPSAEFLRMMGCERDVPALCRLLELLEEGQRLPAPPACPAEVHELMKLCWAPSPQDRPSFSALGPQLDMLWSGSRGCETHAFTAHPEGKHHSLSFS
Assay: JAK3 Inhibition Assay (33P incorporation into poly(Glu)4Tyr)
Type: biochemical
Settings: for Ki: 1 nM JAK3, 5 μM ATP, 1 μM poly(Glu)4Tyr, 25° C.
Description: Compounds were screened for their ability to inhibit JAK3 using the assay shown below. Reactions were carried out in a kinase buffer containing 100 mM HEPES (pH 7.4), 1 mM DTT, 10 mM MgCl2, 25 mM NaCl, and 0.01% BSA. Substrate concentrations in the assay were 5 μM ATP (200 uCi/μmole ATP) and 1 μM poly(Glu)4Tyr. Reactions were carried out at 25° C. and 1 nM JAK3.
To each well of a 96 well polycarbonate plate was added 1.5 μl of a candidate JAK3 inhibitor along with 50 μlof kinase buffer containing 2 μM poly(Glu)4Tyr and 10 μM ATP. This was then mixed and 50 μl of kinase buffer containing 2 nM JAK3 enzyme was added to start the reaction. After 20 minutes at room temperature (25° C.), the reaction was stopped with 50 μl of 20% trichloroacetic acid (TCA) that also contained 0.4 mM ATP. The entire contents of each well were then transferred to a 96 well glass fiber filter plate using a TomTek Cell Harvester. After washing, 60 μl of scintillation fluid was added and ^33P incorporation detected on a Perkin Elmer TopCount.

Row | SMILES | inhibition of JAK3 at concentrations of 50 μM | Ki [µM] | other results
1 | C[C@H](Nc1nc(-c2ccc(F)nc2)ncc1F)C(=O)NCC(F)(F)F [Compound 1] | did not inhibit |  | 
2 | C[C@H](Nc1nc(-c2ccnc(Cl)c2)ncc1F)C(=O)NCC(F)(F)F [Compound 2] |  | 10 to 50 | 
3 | C[C@H](Nc1nc(-c2ccncc2)ncc1F)C(=O)NCC(F)(F)F [Compound 3] | did not inhibit |  | 
4 | C[C@H](Nc1nc(-c2cccnc2)ncc1F)C(=O)NCC(F)(F)F [Compound 4] |  | 1 to 10 | 
5 | C[C@H](Nc1nc(-c2cccnc2Cl)ncc1F)C(=O)NCC(F)(F)F [Compound 5] | did not inhibit |  | 
6 | C[C@H](Nc1nc(-c2ccc(N)nc2)ncc1F)C(=O)NCC(F)(F)F [Compound 6] |  | 10 to 50 | 
7 | C[C@H](Nc1nc(-c2c[nH]c(C(=O)O)c2)ncc1F)C(=O)NCC(F)(F)F [Compound 7] | did not inhibit |  | 
8 | O=C(CNc1nc(-c2cccnc2F)ncc1F)NCC(F)(F)F [Compound 8] |  | 10 to 50 | 
9 | O=C(CNc1nc(-c2ccc(F)nc2)ncc1F)NCC(F)(F)F [Compound 9] | did not inhibit |  | 
10 | COc1ccc(-c2ncc(F)c(NCC(=O)NCC(F)(F)F)n2)cn1 [Compound 10] | did not inhibit |  | 
11 | O=C(CNc1nc(-c2cccnc2)ncc1F)NCC(F)(F)F [Compound 11] |  | 1 to 10 | 
12 | O=C(CCNc1nc(-c2cccnc2F)ncc1F)NCC(F)(F)F [Compound 12] | did not inhibit |  | 
13 | O=C(CCNc1nc(-c2ccc(F)nc2)ncc1F)NCC(F)(F)F [Compound 13] | did not inhibit |  | 
14 | COc1ccc(-c2ncc(F)c(NCCC(=O)NCC(F)(F)F)n2)cn1 [Compound 14] | did not inhibit |  | 
15 | O=C(CCNc1nc(-c2cccnc2)ncc1F)NCC(F)(F)F [Compound 15] |  | 10 to 50 | 
16 | O=C(CCNc1nc(-c2cn[nH]c2)ncc1F)NCC(F)(F)F [Compound 16] | did not inhibit |  | 
17 | C[C@@H](Nc1nc(-c2cccnc2F)ncc1F)C(=O)NCC(F)(F)F [Compound 17] | did not inhibit |  | 
18 | COc1ccc(-c2ncc(F)c(N[C@H](C)C(=O)NCC(F)(F)F)n2)cn1 [Compound 18] | did not inhibit |  | 
19 | C[C@@H](Nc1nc(-c2ccc(F)nc2)ncc1F)C(=O)NCC(F)(F)F [Compound 19] | did not inhibit |  | 
20 | C[C@@H](Nc1nc(-c2cccnc2)ncc1F)C(=O)NCC(F)(F)F [Compound 20] |  | 10 to 50 | 
21 | O=C(NCC(F)(F)F)[C@H]1CCCN1c1nc(-c2cccnc2F)ncc1F [Compound 21] | did not inhibit |  | 
22 | O=C(NCC(F)(F)F)[C@H]1CCCN1c1nc(-c2ccc(F)nc2)ncc1F [Compound 22] | did not inhibit |  | 
23 | O=C(NCC(F)(F)F)[C@H]1CCCN1c1nc(-c2cccnc2)ncc1F [Compound 23] | did not inhibit |  | 
24 | O=C(NCC(F)(F)F)[C@@H]1CCCN1c1nc(-c2cccnc2F)ncc1F [Compound 24] | did not inhibit |  | 
25 | O=C(NCC(F)(F)F)[C@@H]1CCCN1c1nc(-c2ccc(F)nc2)ncc1F [Compound 25] | did not inhibit |  | 
26 | O=C(NCC(F)(F)F)[C@@H]1CCCN1c1nc(-c2cccnc2)ncc1F [Compound 26] |  | 1 to 10 | 
27 | C[C@H](Nc1nc(-c2cccnc2N)ncc1F)C(=O)NCC(F)(F)F [Compound 27] |  | 1 to 10 | 
28 | CC(C)[C@H](Nc1ccnc(-c2cccnc2N)n1)C(=O)NCC(F)(F)F [Compound 28] |  | 1 to 10 | 

Row | SMILES | inhibition of JAK3 at concentrations of 50 μM | Ki [µM] | other results
29 | Nc1ncccc1-c1ncc(F)c(NCC(=O)NCC(F)(F)F)n1 [Compound 29] |  | ≤ 1 | 
30 | Nc1ncccc1-c1ncc(F)c(NCCC(=O)NCC(F)(F)F)n1 [Compound 30] |  | 1 to 10 | 
31 | CC(C)(Nc1ccnc(-c2cccnc2N)n1)C(=O)NCC(F)(F)F [Compound 31] |  | 1 to 10 | 
32 | Nc1ncccc1-c1ncc(F)c(N2CC(C(=O)NCC(F)(F)F)C2)n1 [Compound 32] |  | 1 to 10 | 
33 | C[C@H](Nc1cc(-n2nc(Nc3ccc(F)cc3)nc2N)ncn1)C(=O)NCC(F)(F)F [Compound 33] |  | ≤ 1 | 
34 | CC[C@H](Nc1cc(-n2nc(Nc3ccc(F)cc3)nc2N)ncn1)C(=O)NCC(F)(F)F [Compound 34] |  | ≤ 1 | 
35 | Nc1nc(Nc2ccc(F)cc2)nn1-c1cc(NCCC(=O)NCC(F)(F)F)ncn1 [Compound 35] |  | ≤ 1 | 
36 | Nc1nc(Nc2ccc(F)cc2)nn1-c1cc(NCC(=O)NCC(F)(F)F)ncn1 [Compound 36] |  | ≤ 1 | 
37 | Nc1nc(Nc2ccc(F)cc2)nn1-c1cc(N2CCC[C@@H]2C(=O)NCC(F)(F)F)ncn1 [Compound 37] |  | ≤ 1 | 
38 | COc1ccc(Nc2nc(N)n(-c3nccc(NC(C)(C)C(=O)NCC(F)(F)F)n3)n2)cc1 [Compound 38] |  | 1 to 10 | 
39 | COc1ccc(Nc2nc(N)n(-c3ncc(F)c(N4CCC[C@@H]4C(=O)NCC(F)(F)F)n3)n2)cc1 [Compound 39] |  | 1 to 10 | 
40 | COc1ccc(Nc2nc(N)n(-c3ncc(F)c(N4CCC[C@@H]4C(=O)NCC(F)(F)F)n3)n2)c(C)c1 [Compound 40] |  |  | inhibition of JAK3 at concentrations of 5.0 μM: did not inhibit
41 | Nc1nc(Nc2ccccc2Cl)nn1-c1ncc(F)c(N2CCC[C@@H]2C(=O)NCC(F)(F)F)n1 [Compound 41] |  |  | inhibition of JAK3 at concentrations of 5.0 μM: did not inhibit
42 | COc1ccc(Nc2nc(N)n(-c3nccc(N[C@H](C(=O)NCC(F)(F)F)C(C)C)n3)n2)cc1 [Compound 42] |  | ≤ 1 | 
43 | COc1ccc(Nc2nc(N)n(-c3ncc(F)c(N[C@@H](C(=O)NCC(F)(F)F)C(C)C)n3)n2)cc1 [Compound 43] |  | 1 to 10 | 
44 | Nc1nc(Nc2ccc(F)cc2)nn1-c1ncc(F)c(N2CCC[C@@H]2C(=O)NCC(F)(F)F)n1 [Compound 44] |  | 1 to 10 | 
45 | C[C@H](Nc1nc(-n2nc(Nc3ccc(F)cc3)nc2N)ncc1F)C(=O)NCC(F)(F)F [Compound 45] |  | 1 to 10 | 
46 | Nc1nc(Nc2cccnc2)nn1-c1ncc(F)c(N2CCC[C@@H]2C(=O)NCC(F)(F)F)n1 [Compound 46] |  |  | inhibition of JAK3 at concentrations of 5.0 μM: did not inhibit
47 | Nc1nc(NC2CCCCC2)nn1-c1ncc(F)c(N2CCC[C@@H]2C(=O)NCC(F)(F)F)n1 [Compound 47] |  |  | inhibition of JAK3 at concentrations of 5.0 μM: did not inhibit
48 | Nc1nc(NCC2CCCCC2)nn1-c1ncc(F)c(N2CCC[C@@H]2C(=O)NCC(F)(F)F)n1 [Compound 48] |  |  | inhibition of JAK3 at concentrations of 5.0 μM: did not inhibit
49 | Nc1nc(Nc2ccc([C@H]3CC[C@H](N4CCOCC4)CC3)cc2)nn1-c1ncc(F)c(N2CCC[C@@H]2C(=O)NCC(F)(F)F)n1 [Compound 49] |  | 1 to 10 | 
50 | COc1ccc(Nc2nc(N)n(-c3ncc(F)c(NCCC(=O)NCC(F)(F)F)n3)n2)cc1 [Compound 50] |  | 1 to 10 | 
51 | Nc1nc(Nc2ccccc2)nn1-c1ncc(F)c(N2CCC[C@@H]2C(=O)NCC(F)(F)F)n1 [Compound 51] |  | 1 to 10 | 
52 | Nc1nc(NC2CC2)nn1-c1ncc(F)c(N2CCC[C@@H]2C(=O)NCC(F)(F)F)n1 [Compound 52] |  |  | inhibition of JAK3 at concentrations of 5.0 μM: did not inhibit
53 | CC(C)Nc1nc(N)n(-c2ncc(F)c(N3CCC[C@@H]3C(=O)NCC(F)(F)F)n2)n1 [Compound 53] |  |  | inhibition of JAK3 at concentrations of 5.0 μM: did not inhibit
54 | CCCNc1nc(N)n(-c2ncc(F)c(N3CCC[C@@H]3C(=O)NCC(F)(F)F)n2)n1 [Compound 54] |  |  | inhibition of JAK3 at concentrations of 5.0 μM: did not inhibit
55 | Nc1nc(NCC2CCCO2)nn1-c1ncc(F)c(N2CCC[C@@H]2C(=O)NCC(F)(F)F)n1 (stereo partly shown) [Compound 55] |  |  | inhibition of JAK3 at concentrations of 5.0 μM: did not inhibit

Reference: patent US8686143B2, “Compounds useful as inhibitors of Janus kinases” (Vertex Pharmaceuticals Incorporated, priority 2007, dated 2014)
